Structures are written as SMILES.

Our source for the IC50 and melting point values is patent US8288418B2, “Benzimidazole derivatives and their use for modulating the GABAA receptor complex” (Neurosearch A/S, priority 2006, dated 2012).

The target of the first data set is GABAA receptor complex, benzodiazepine modulatory unit (cerebral cortex membranes). Nature of the data set: In vitro inhibition of 3H-flunitrazepam (3H-FNM) binding. On the set-up: species or system rat. To be noted: inhibition of specific binding of 3H-FNM (1 nM), cerebral cortex membranes of male Wistar rats, 40 min at 2° C. The protocol: In vitro Inhibition of ^3H-flunitrazepam (^3H-FNM) Binding
The GABA recognition site and the benzodiazepine modulatory unit can selectively be labelled with ^3H-flunitrazepam.
Preparations are performed at 0-4° C. unless otherwise indicated. Cerebral cortex from male Wistar rats (150-200 g) is homogenised for 5-10 sec in 20 ml Tris-HCl (30 mM, pH 7.4) using an Ultra-Turrax homogeniser. The suspension is centrifuged at 27,000×g for 15 min and the pellet is washed three times with buffer (centrifuged at 27,000×g for 10 min). The washed pellet is homogenized in 20 ml of buffer and incubated on a water bath (37° C.) for 30 min to remove endogenous GABA and then centrifuged for 10 min at 27,000×g. The pellet is then homogenized in buffer and centrifuged for 10 min at 27,000×g. The final pellet is resuspended in 30 ml buffer and the preparation is frozen and stored at −20° C.
The membrane preparation is thawed and centrifuged at 2° C. for 10 min at 27,000×g. The pellet is washed twice with 20 ml 50 mM Tris-citrate, pH 7.1 using an Ultra-Turrax homogeniser and centrifuged for 10 min at 27,000×g. The final pellet is resuspended in 50 mM Tris-citrate, pH 7.1 (500 ml buffer per g of original tissue), and then used for binding assays. Aliquots of 0.5 ml tissue are added to 25 μl of test solution and 25 μl of ^3H-FNM (1 nM, final concentration), mixed and incubated for 40 min at 2° C. Non-specific binding is determined using Clonazepam (1 μM, final concentration). After incubation the samples are added 5 ml of ice-cold buffer and poured directly onto Whatman GF/C glass fibre filters under suction and immediately washed with 5 ml ice-cold buffer. The amount of radioactivity on the filters is determined by conventional liquid scintillation counting. Specific binding is total binding minus non-specific binding.
25-75% inhibition of specific binding must be obtained, before calculation of an IC50.
The test value will be given as IC50 (the concentration (μM) of the test substance which inhibits the specific binding of ^3H-FNM by 50%).
Co is specific binding in control assays, and
Cx is the specific binding in the test assay.
(The calculations assume normal mass-action kinetics).
As for `C[C@@H](O)c1ccc2c(c1)ncn2-c1cccc(-c2cccnc2F)c1` [Compound 9aba, (R)-1-{1-[3-(2-Fluoro-pyridin-3-yl)-phenyl]-1H-benzoimidazol-5-yl}-ethanol], the IC50 was 6.2 nM.

`COc1cc(F)ccc1-c1cccc(-n2cnc3cc(C(F)(F)F)ccc32)c1` [Compound 9a, 1-(4′-Fluoro-2′-methoxy-biphenyl-3-yl)-5-trifluoromethyl-1H-benzoimidazole] returned an IC50 of 1.4 nM.

For `COc1ccccc1-c1cccc(-n2cnc3cc(-c4cc[nH]n4)ccc32)c1` [Compound 9ak, 5-(1H-3-Pyrazolyl)-1-(2′-methoxy-biphenyl-3-yl)-1H-benzoimidazole], the IC50 turned out to be 21 nM.

With `N=C(NO)c1ccc2c(c1)ncn2-c1cccc(-c2ccccc2Cl)c1` [Compound 12ha, 1-(2′-Chloro-biphenyl-3-yl)-N-hydroxy-1H-benzoimidazole-5-carboxamidine], the IC50 is 0.95 nM.

For `CC(C)(O)c1ccc2c(c1)ncn2-c1cccc(-c2cccnc2F)c1` [Compound 9ada, 2-{1-[3-(2-Fluoro-pyridin-3-yl)-phenyl]-1H-benzoimidazol-5-yl}-propan-2-ol], the IC50 is 4 nM.

Take `CC(C)(O)c1ccc2c(c1)ncn2-c1cccc(-c2ccccc2C#N)c1` [Compound 9aac, 3′-[5-(1-Hydroxy-1-methyl-ethyl)-benzoimidazol-1-yl]-biphenyl-2-carbonitrile]: the IC50 was 0.65 nM.

Tested on in the next data set: not given
Test: not given
Conditions: not given
For the compound `CC(O)c1ccc2c(c1)ncn2-c1cccc(-c2cccnc2O)c1` (stereo not shown) [Compound 16, 3-{3-[5-(1-Hydroxy-ethyl)-benzoimidazol-1-yl]-phenyl}-pyridin-2-ol], the melting point lay in the range of 133 to 137 °C.

The compound `COc1cc(F)ccc1-c1cccc(-n2cnc3cc(C(F)(F)F)ccc32)c1` [Compound 9a, 1-(4′-Fluoro-2′-methoxy-biphenyl-3-yl)-5-trifluoromethyl-1H-benzoimidazole] returned a melting point of 95.5 °C.

Regarding `CC(C)OC(=O)c1ccc2c(c1)ncn2-c1cccc(-c2cccnc2Cl)c1` [Compound 19, 1-[3-(2-Chloro-pyridin-3-yl)-phenyl]-1H-benzoimidazole-5-carboxylic acid isopropyl ester], the melting point fell in the range of 147 to 150 °C.

In turn, `CC(=NO)c1ccc2c(c1)ncn2-c1cccc(-c2cccnc2O)c1` [Compound 15, 1-{1-[3-(2-Hydroxy-pyridin-3-yl)-phenyl]-1H-benzoimidazol-5-yl}-ethanone oxime] gave a melting point of 220 to 223 °C.
